# Experiments:
# Sprague-Dawley rats [1] = assay: Observation of the site of the subcutaneous injection; format: in vivo, rat; conditions: subcutaneous, in MCT oil, all doses
# Procedure: (§1) In Vivo Anti-inflammatory Activity and Gastric Toxicity. Groups of four rats were used for all studies. All doses were calculated as equivalent concentrations of Indo. […] For subcutaneous and intramuscular administration, rats were injected with 125-200 μL volumes of the test compositions (IndoH or [Cu2(Indo)4(OH2)2] in MCT oil). The control cohort was injected with equivalent volumes of neat MCT. Subcutaneous injections were made in the lower dorsal surface and intramuscular injections were made in the right hind thigh muscle. Inflammation was induced 1 h after dosing by injection of the formulation by an injection of carrageenan (0.1 mL, 1% w/v in isotonic saline) into the plantar region of the hind paw.
# Sprague-Dawley rats [2] = assay: Inhibition of carrageenan-induced paw edema, oral administration; format: in vivo, rat; conditions: oral, IndoH 10 mg kg^−1, complex 11 mg kg^−1, mean(sem)
# Procedure: Inhibition of Carrageenan-Induced Paw Edema: Rats were orally administered (non-anaesthetized) the Test Samples or Test Compositions via oral gavage. The control cohort was dosed solely with CMC (2%) solution. […] Exp. Ther. 1965, 150, 165-171). The thickness of the paw was measured at the ventral dorsal footpad using digital calipers prior to dosing and at 3 and 5 h after carrageenan injection. The change in the measured parameter (ΔP) for thickness of paw (Δmm) at n=3- and 5-hours after carrageenan injection is given by: ΔP=Pt=n-Pt=0 (I) The percent inhibition (% inhibition) at 3- or 5-hours in the measured parameter (P) due to the treatment is given as the difference between the % increase in the value of P in the control group and the treatment group at n=3- or 5-hours, with the % increase in the value of P given by: […]
# Sprague-Dawley rats [3] = assay: Anti-inflammatory activity (rat paw oedema) after subcutaneous or intramuscular injection; format: in vivo
# Procedure: as §1
# Paw volume was measured prior to dosing and at 3 h after carrageenan injection by immersing the left hind paw (to the lateral malleus) into a vessel filled with water as described in Example 5. Immediately after paw volume measurements, 24 h-fasted animals were euthanised and the stomach was excised and opened by incision along the greater curvature.
smiles,measurement,setting,value
COc1ccc2c(c1)c(CC(=O)[O-])c(C)n2C(=O)c1ccc(Cl)cc1.COc1ccc2c(c1)c(CC(=O)[O-])c(C)n2C(=O)c1ccc(Cl)cc1.COc1ccc2c(c1)c(CC(=O)[O-])c(C)n2C(=O)c1ccc(Cl)cc1.COc1ccc2c(c1)c(CC(=O)[O-])c(C)n2C(=O)c1ccc(Cl)cc1.O.O.[Cu+2].[Cu+2] [[Cu2(Indo)4(OH2)2]],adverse effect at the site of the injection,Sprague-Dawley rats [1],"None of the rats exhibited soreness, swelling, redness or any other adverse effect"
same,"percent inhibition in rat hind-paw diameter change, 3-hr",Sprague-Dawley rats [2]; 3 h post carrageenan,30(4)%
same,"percent inhibition in rat hind-paw diameter change, 5-hr",Sprague-Dawley rats [2]; 5 h post carrageenan,31(3)%
same,Percent inhibition,"Sprague-Dawley rats [3]; intramuscular, fasting rats, 2 mg/kg equivalent dose of Indo",0%
same,Percent inhibition,"Sprague-Dawley rats [3]; intramuscular, fasting rats, 10 mg/kg equivalent dose of Indo",47.7%
same,Percent inhibition,"Sprague-Dawley rats [3]; intramuscular, fasting rats, 20 mg/kg equivalent dose of Indo",49.7%
same,Percent inhibition,"Sprague-Dawley rats [3]; subcutaneous, 1 mg/kg of Indo, fasting",4%
same,Percent inhibition,"Sprague-Dawley rats [3]; subcutaneous, 2 mg/kg of Indo, fasting",6%
same,Percent inhibition,"Sprague-Dawley rats [3]; subcutaneous, 5 mg/kg of Indo, fasting",24.9%
same,Percent inhibition,"Sprague-Dawley rats [3]; subcutaneous, 7.5 mg/kg of Indo, non-fasting",47%
same,Percent inhibition,"Sprague-Dawley rats [3]; subcutaneous, 10 mg/kg of Indo, fasting",35.8%
same,Percent inhibition,"Sprague-Dawley rats [3]; subcutaneous, 20 mg/kg of Indo, fasting",33.9%
same,Percent inhibition,"Sprague-Dawley rats [3]; subcutaneous, 20 mg/kg of Indo, non-fasting",31.6%
same,dose at which the anti-inflammatory effect plateaus,"Sprague-Dawley rats [3]; subcutaneous, in MCT oil",5-7.5 mg kg^−1 of Indo
